Experiments:
[1] = Cytotoxicity: HL-60 growth/viability, Trypan Blue dye exclusion; assay type: cell-based, human; conditions: human, HL-60 cells (acute promyelocytic leukemia); HL-60, 72 h treatment, Trypan Blue; read-out: IC50 (cytotoxic effect)
Description: The human acute promyelocytic leukemia cell line HL-60 was routinely grown in suspension in RPMI medium (Invitrogen, Madrid, Spain) containing glutamine ([…], Sigma-Aldrich, St. Louis, MO, USA), antibiotics (100IU penicillin mL^−1 and 100 μg streptomycin mL^−1, Sigma-Aldrich) and supplemented with 10% heat-inactivated foetal bovine serum (Linus, Cultek, Madrid, Spain) and placed in an incubator (Shel Lab, Cornelious, OR, USA) with a 5% CO2 humidified atmosphere at 37 °C [36]. HL-60 cells were subcultured every 2–3 days to maintain logarithmic growth and they were allowed to grow for 48 h before use. Cultures were plated at a density of 12.5 × 10^4 cells mL^−1 in 40 mL culture flasks (25 cm^2). Cytotoxic activity was measured as growing inhibition or decreased viability on HL-60 cells following a previous protocol modified by us. […] Cells were counted after 72 h treatment. Tested concentrations were calculated according to those used for in vivo assays to equal the range of tested doses. Untreated cultures were used as negative control. Cell viability was determined by the Trypan Blue dye exclusion test. Cells were stained with an equal volume of Trypan Blue commercial solution (Sigma-Aldrich) and counted using a hemocytometer at room temperature under a light inverted microscope (AE30/31, Motic, Barcelona, Spain). Cytotoxic effect evaluation was determined after each culture incubation period, establishing a growth curve and determining IC50 values by regression analysis of the curves. Viability estimated regressions of leukemia cells are presented as a survival percentage with respect to controls at 72 h growth and plotted as mean viability ± standard error of at least three independent replicas for each treatment and concentration.

[2] = tested on: rats; parameters: method as in PMID 16026713; conditions: doses of 2 and 8 mg·kg^−1, brain tissue and peripheral blood; cited from earlier work
[3] = tested on: D. melanogaster; assay: Antigenotoxicity: SMART, combined treatments with H2O2 0.12 M; assay type: in vivo, Drosophila melanogaster; for Diagnosis, Large Single Spots >2 Cells m = 5: key: + (positive); − (negative); for Diagnosis, Small Single Spots 1–2 Cells m = 2: key: + (positive); − (negative); for Diagnosis, Total Spots m = 2: key: + (positive); − (negative); for Diagnosis, Twin Spots m = 5: key: + (positive); − (negative)
Description: The D. melanogaster system was selected for the determination of the safety of B. officinalis consumption as a well-recognized method to analyze vegetable complex mixtures using SMART [31, 32]. This test was used in order to evaluate the genotoxic and antigenotoxic activity of B. officinalis leaves and petioles as well as their selected bioactive compounds [33]. This activity was measured by direct visualization of the occurrence of recessive mutations in the wing hairs of two different D. melanogaster strains. Flies from experiments carried these visible wing genetic markers: the flare (flr) strain […]) TM3, Bd^s and the multiple wing-hair (mwh) strain […] [35]. The marker flare (flr^3, 3_38.3) produces individual malformed hairs and the marker multiple wing hairs (mwh, 3_0.3) produces multiple hairs per cell. Larvae used in treatments come from two types of crosses: the standard cross with flr^3/TM3, Bd^S females mated to […] and the reciprocal cross. Optimal fertile flies were anesthetized under CO2 narcotisation for cross selection and then placed in new vials for fertilization. After that, hybrid eggs from crossing were collected over an 8 h period and emerged larvae (72 ± 4 h later) were cleaned up for a few seconds in sterile distilled water to remove feeding medium rests. […] Bioactive compound concentrations were chosen on the basis of their known content in B. officinalis species. […] Larvae were fed on these media until pupation (about 48 h). After emergence, resulting adult flies were sacrificed under CO2 narcotisation and stored in a 70% ethanol solution in sterile water. […] For the evaluation of genotoxic effects, the frequencies of spots per fly of each treated series were compared to the concurrent negative control for each class of mutational clone as well as between simple and combined treatments for the same concentration comparisons. […] A multiple-decision procedure was used to categorize results as positive, inconclusive or negative. Inconclusive and positive results were evaluated by the non-parametric U test of Mann, Whitney and Wilcoxon. The inhibition percentage (IP) of genotoxicity was calculated from the total frequencies of spots per wing, following this formula [42]: IP = (genotoxin alone - sample + genotoxin) × 100/(genotoxin alone)(2) Significant differences of IP for each treatment respect to the positive control were analyzed with a Chi-square test.

[4] = tested on: V79 cell line; parameters: method as in doi:10.3389/conf.fgene.2015.01.0004; conditions: dose dependent, concentrations below 2 mM reduce DNA damage; cited from earlier work
[5] = tested on: HL-60 cells; parameters: method as in PMID 19067382; conditions: SY in extracts of Elaphomyces granulates, concentrations up to ~31 µg·mL^−1; cited from earlier work
[6] = tested on: HL-60 cell; conditions: 0.1 mM in cell medium; cited from earlier work
[7] = combined with 0.12 M H2O2, 0.35 mM RO
[8] = combined with 0.12 M H2O2, 0.7 mM RO
[9] = combined with 0.12 M H2O2, 1.39 mM RO
[10] = combined with 0.12 M H2O2, 2.78 mM RO
[11] = combined with 0.12 M H2O2, 0.15 mM SI
[12] = combined with 0.12 M H2O2, 0.29 mM SI
[13] = combined with 0.12 M H2O2, 0.58 mM SI
[14] = combined with 0.12 M H2O2, 1.16 mM SI
[15] = combined with 0.12 M H2O2, 0.16 mM SY
[16] = combined with 0.12 M H2O2, 0.32 mM SY
[17] = combined with 0.12 M H2O2, 0.63 mM SY
[18] = combined with 0.12 M H2O2, 1.26 mM SY

O=C(/C=C/c1ccc(O)c(O)c1)O[C@H](Cc1ccc(O)c(O)c1)C(=O)O [RO, rosmarinic acid]
IC50 at 72 h [1]: 70 µM
Genotoxic effect, comet assay [2]: no genotoxic effect
Diagnosis, Small Single Spots 1–2 Cells m = 2 [3, 7]: −
Diagnosis, Total Spots m = 2 [3, 7]: −
Mutation rate, Large Single Spots >2 Cells m = 5 [3, 7]: 0 spots/wing
Mutation rate, Small Single Spots 1–2 Cells m = 2 [3, 7]: 0.17 (5) spots/wing
Mutation rate, Total Spots m = 2 [3, 7]: 0.17 (5) spots/wing
Mutation rate, Twin Spots m = 5 [3, 7]: 0 spots/wing
Diagnosis, Large Single Spots >2 Cells m = 5 [3, 8]: −
Diagnosis, Small Single Spots 1–2 Cells m = 2 [3, 8]: −
Diagnosis, Total Spots m = 2 [3, 8]: −
Diagnosis, Twin Spots m = 5 [3, 8]: −
Mutation rate, Large Single Spots >2 Cells m = 5 [3, 8]: 0.08 (3) spots/wing
Mutation rate, Small Single Spots 1–2 Cells m = 2 [3, 8]: 0.35 (14) spots/wing
Mutation rate, Total Spots m = 2 [3, 8]: 0.45 (18) spots/wing
Mutation rate, Twin Spots m = 5 [3, 8]: 0.03 (1) spots/wing
Diagnosis, Large Single Spots >2 Cells m = 5 [3, 9]: −
Diagnosis, Small Single Spots 1–2 Cells m = 2 [3, 9]: −
Diagnosis, Total Spots m = 2 [3, 9]: −
Mutation rate, Large Single Spots >2 Cells m = 5 [3, 9]: 0.14 (3) spots/wing
Mutation rate, Small Single Spots 1–2 Cells m = 2 [3, 9]: 0.14 (3) spots/wing
Mutation rate, Total Spots m = 2 [3, 9]: 0.27 (6) spots/wing
Mutation rate, Twin Spots m = 5 [3, 9]: 0 spots/wing
Diagnosis, Small Single Spots 1–2 Cells m = 2 [3, 10]: −
Diagnosis, Total Spots m = 2 [3, 10]: −
Diagnosis, Twin Spots m = 5 [3, 10]: −
Mutation rate, Large Single Spots >2 Cells m = 5 [3, 10]: 0 spots/wing
Mutation rate, Small Single Spots 1–2 Cells m = 2 [3, 10]: 0.21 (11) spots/wing
Mutation rate, Total Spots m = 2 [3, 10]: 0.25 (13) spots/wing
Mutation rate, Twin Spots m = 5 [3, 10]: 0.04 (2) spots/wing

COc1cc(/C=C/C(=O)O)cc(OC)c1O [SI, sinapic acid]
Diagnosis, Small Single Spots 1–2 Cells m = 2 [3, 11]: −
Diagnosis, Total Spots m = 2 [3, 11]: −
Mutation rate, Large Single Spots >2 Cells m = 5 [3, 11]: 0 spots/wing
Mutation rate, Small Single Spots 1–2 Cells m = 2 [3, 11]: 0.42 (5) spots/wing
Mutation rate, Total Spots m = 2 [3, 11]: 0.42 (5) spots/wing
Mutation rate, Twin Spots m = 5 [3, 11]: 0 spots/wing
Diagnosis, Small Single Spots 1–2 Cells m = 2 [3, 12]: −
Diagnosis, Total Spots m = 2 [3, 12]: −
Mutation rate, Large Single Spots >2 Cells m = 5 [3, 12]: 0 spots/wing
Mutation rate, Small Single Spots 1–2 Cells m = 2 [3, 12]: 0.25 (2) spots/wing
Mutation rate, Total Spots m = 2 [3, 12]: 0.25 (2) spots/wing
Mutation rate, Twin Spots m = 5 [3, 12]: 0 spots/wing
Diagnosis, Large Single Spots >2 Cells m = 5 [3, 13]: −
Diagnosis, Small Single Spots 1–2 Cells m = 2 [3, 13]: −
Diagnosis, Total Spots m = 2 [3, 13]: −
Diagnosis, Twin Spots m = 5 [3, 13]: −
Mutation rate, Large Single Spots >2 Cells m = 5 [3, 13]: 0.09 (2) spots/wing
Mutation rate, Small Single Spots 1–2 Cells m = 2 [3, 13]: 0.27 (6) spots/wing
Mutation rate, Total Spots m = 2 [3, 13]: 0.41 (9) spots/wing
Mutation rate, Twin Spots m = 5 [3, 13]: 0.05 (1) spots/wing
Diagnosis, Large Single Spots >2 Cells m = 5 [3, 14]: −
Diagnosis, Small Single Spots 1–2 Cells m = 2 [3, 14]: −
Diagnosis, Total Spots m = 2 [3, 14]: −
Mutation rate, Large Single Spots >2 Cells m = 5 [3, 14]: 0.04 (1) spots/wing
Mutation rate, Small Single Spots 1–2 Cells m = 2 [3, 14]: 0.25 (7) spots/wing
Mutation rate, Total Spots m = 2 [3, 14]: 0.29 (8) spots/wing
Mutation rate, Twin Spots m = 5 [3, 14]: 0 spots/wing
Genotoxic/antigenotoxic activity [4]: antigenotoxic

COc1cc(C(=O)O)cc(OC)c1O [SY, syringic acid]
Cytotoxic effect in HL-60 [5]: no cytotoxic effect
Diagnosis, Small Single Spots 1–2 Cells m = 2 [3, 15]: −
Diagnosis, Total Spots m = 2 [3, 15]: −
Mutation rate, Large Single Spots >2 Cells m = 5 [3, 15]: 0 spots/wing
Mutation rate, Small Single Spots 1–2 Cells m = 2 [3, 15]: 0.23 (5) spots/wing
Mutation rate, Total Spots m = 2 [3, 15]: 0.23 (5) spots/wing
Mutation rate, Twin Spots m = 5 [3, 15]: 0 spots/wing
Diagnosis, Small Single Spots 1–2 Cells m = 2 [3, 16]: −
Diagnosis, Total Spots m = 2 [3, 16]: −
Mutation rate, Large Single Spots >2 Cells m = 5 [3, 16]: 0 spots/wing
Mutation rate, Small Single Spots 1–2 Cells m = 2 [3, 16]: 0.30 (3) spots/wing
Mutation rate, Total Spots m = 2 [3, 16]: 0.30 (3) spots/wing
Mutation rate, Twin Spots m = 5 [3, 16]: 0 spots/wing
Diagnosis, Small Single Spots 1–2 Cells m = 2 [3, 17]: −
Diagnosis, Total Spots m = 2 [3, 17]: −
Mutation rate, Large Single Spots >2 Cells m = 5 [3, 17]: 0 spots/wing
Mutation rate, Small Single Spots 1–2 Cells m = 2 [3, 17]: 0.28 (9) spots/wing
Mutation rate, Total Spots m = 2 [3, 17]: 0.28 (9) spots/wing
Mutation rate, Twin Spots m = 5 [3, 17]: 0 spots/wing
Diagnosis, Small Single Spots 1–2 Cells m = 2 [3, 18]: −
Diagnosis, Total Spots m = 2 [3, 18]: −
Mutation rate, Large Single Spots >2 Cells m = 5 [3, 18]: 0 spots/wing
Mutation rate, Small Single Spots 1–2 Cells m = 2 [3, 18]: 0.32 (7) spots/wing
Mutation rate, Total Spots m = 2 [3, 18]: 0.32 (7) spots/wing
Mutation rate, Twin Spots m = 5 [3, 18]: 0 spots/wing
Apoptosis induction in HL-60 [6]: did not induce apoptosis
